According to US4411900A, “Benzhydrylpiperozinyl thiazole derivatives and pharmaceutical composition comprising the same” (Fujisawa Pharmaceutical Co., Ltd., priority 1980, dated 1983):

System: anaphylactic asthma in guinea-pigs
Assay: Antagonism to anaphylactic asthma in guinea-pigs (inhibitory effect from number of surviving animals)
Assay type: in vivo, guinea-pig (male Hartley strain)
Settings: oral, 30 minutes before egg albumin challenge, survival more than 2 hours after antigen spray, *Dose group: 5 guineapigs (compound D)
Protocol: Equal volumes of a saline solution of egg albumin (200 mg/ml) and of Freund's Complete Ajuvant were mixed and emulsified. Each male New Zealand white strain rabbits, each weighing 2 to 2.5 kg., received an intramuscular injection of 0.5 ml of the emulsion in the left and right thigh regions. One week later, they received an intradermal injection of 0.25 ml of a saline solution of egg albumin (concentration: 20 mg/ml) in the different four sites of the dorsal skin surface three times every other week. Blood samples were collected from the carotid artery one week after the last injection.
The level of anaphylactic anti-egg albumin antibodies in pools of sera were determined by passive cutaneous anaphylaxis (PCA) reactions using shaven Hartley strain test guinea-pigs.
Antiserum was serially diluted (two fold) in saline and 0.1 ml of each antiserum dilution were injected intradermally into the dorsal skin surface of the test guinea-pigs. 24 hours after intradermal sensitization,Egg albumin-specific PCA reactions were elicited by intravenous injection of 10 mg of egg albumin in 1 ml of 1% Evans blue dye dissolved in saline. Reactions were read and recorded as the highest dilution of serum evoking threshold PCA reactivity (5 mm diameter).
Male Hartley strain guinea-pigs, weighing 305 to 400 g, were used. Animals were sensitized by an intravenous injection of rabbit antiserum against egg albumin (4000 PCA titer) with 0.5 ml/animal. After 24 hours, animals were placed individually in a plastic chamber of 5.3 liter volume. An aerosol of 5% egg albumin solution was sprayed in the chamber at a rate of 0.16 ml/min with a commercial nebulizer. The test compounds were given to the animals orally 30 minutes before the challenge with the egg albumin solution. Each dose group consisted of 3 or 5 animals. The inhibitory effect of the test compounds was determined from the number of surviving animals more than 2 hours after spray of the antigen.

| Structure (SMILES) | Inhibitory Effect (Dose 1 mg/kg) | Inhibitory Effect (Dose 10 mg/kg) |
| --- | --- | --- |
| CS(=O)(=O)Nc1nc(CN2CCN(C(c3ccccc3)c3ccccc3)CC2)cs1 [Compound A, 4-(4-Benzhydrylpiperazin-1-ylmethyl)-2-methanesulfonamidothiazole] | 100% | 100% |
| CCS(=O)(=O)Nc1nc(CN2CCN(C(c3ccccc3)c3ccccc3)CC2)cs1 [Compound B, 4-(4-Benzhydrylpiperazin-1-ylmethyl)-2-ethanesulfonamidothiazole] | 67% | 100% |
| CCCS(=O)(=O)Nc1nc(CN2CCN(C(c3ccccc3)c3ccccc3)CC2)cs1 [Compound C, 4-(4-Benzhydrylpiperazin-1-ylmethyl)-2-propanesulfonamidothiazole] | 100% | 100% |
| CC(=O)Nc1nc(CCCN2CCN(C(c3ccccc3)c3ccccc3)CC2)cs1 [Compound D, 4-[3-(4-Benzhydrylpiperazin-1-yl)-propyl]-2-acetamidothiazole] | 40% | 100% |
